# Target: T1, human EP3 receptor (Homo sapiens, UniProt P43115)
# T1 construct: expressed in transfected cells
# T1 sequence (P43115 1-390): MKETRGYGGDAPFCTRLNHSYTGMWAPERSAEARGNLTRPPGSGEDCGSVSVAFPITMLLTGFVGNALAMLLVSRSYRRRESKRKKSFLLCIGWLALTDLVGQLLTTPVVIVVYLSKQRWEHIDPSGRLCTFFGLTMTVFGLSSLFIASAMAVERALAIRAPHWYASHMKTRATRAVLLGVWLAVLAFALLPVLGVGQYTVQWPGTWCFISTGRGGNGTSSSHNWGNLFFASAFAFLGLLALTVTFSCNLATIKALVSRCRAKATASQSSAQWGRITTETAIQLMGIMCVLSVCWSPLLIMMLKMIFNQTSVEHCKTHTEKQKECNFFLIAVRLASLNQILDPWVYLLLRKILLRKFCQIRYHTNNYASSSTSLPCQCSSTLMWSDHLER
# Assay: Human EP3 receptor binding assay (3H-PGE2 displacement, 293S cell membranes)
# Conditions: displacement of 3H-prostaglandin E2, 293S membranes, 1 hour at 25° C.
# Description: The compounds of Formula I or II, which are useful in the methods of the present invention, bind to the prostaglandin E2 type 4 receptor (EP4 receptor). The full-length coding sequence for the human EP1 receptor is made in accordance with the procedure in Funk et al., Journal of Biological Chemistry, 1993, 268, 26767-26772. The full-length rat EP2 receptor is made in accordance with the procedure in Nemoto et al., Prostaglandins and other Lipid Mediators, 1997, 54, 713-725. The full-length coding sequence for the human EP3 receptor is made in accordance with the procedure in Regan et al., British Journal of Pharmacology, 1994, 112, 377-385. The full-length coding sequence for the rat EP4 receptor is made in accordance with the procedure in Sando et al., Biochem. Biophys. Res. Comm. 1994, 200,1329-1333. These full-length receptors are used to prepare 293S cells expressing the human EP1, rat EP2, human EP3 or rat EP4 receptors.
# Human EP1, Rat EP2, Human EP3, Rat EP4 Receptor Binding Assay
# The full-length receptors described above are used to prepare 293S cells expressing the EP1, EP2, EP3, and EP4 receptors.
# 293S cells expressing either the human EP1, rat EP2, human EP3 or rat EP4 prostaglandin E2 receptors are generated according to methods known to those skilled in the art. Typically, PCR (polymerase chain reaction) primers corresponding to the 5′ and 3′ ends of the published full length receptor are made according to the well known methods disclosed above and are used in an RT-PCR (reverse transcriptase-polymerase chain reaction) reaction using the total RNA from human kidney (for EP1), rat kidney (for EP2), human lung (for EP3), or rat kidney (EP4) as a source. PCR products are cloned by the TA overhang method into pCR2.1 (Invitrogen Corporation, Carlsbad, Calif.) and identity of the cloned receptor is confirmed by DNA sequencing. For expression of the rat EP2 receptor, the confirmed cDNA is subcloned into the mammalian expression vector PURpCl, a vector generated by subcloning the selectable marker for puromycin resistance into the mammalian expression vector pCl (Promega, Madison, Wis.)
# 293S cells are transfected with either the cloned human EP1 or EP3 receptor in pcDNA3 by electroporation. Stable cell lines expressing either the human EP1 or EP3 receptor are established following selection of transfected cells with G418. 293S cells are transfected with the cloned rat EP2 receptor in PURpCi by lipid mediated transfection. Stable cell lines expressing the rat EP2 receptor are established following selection of transfected cells with puromycin. 293S cells are transfected with the cloned rat EP4 receptor in pcDNA3 by lipid mediated transfection. Stable cell lines expressing the rat EP4 receptor are established following selection of transfected cells with Geneticin® (Invitrogen, Carlsbad, Calif.).
# Clonal cell lines expressing the maximal number of receptors are chosen following a whole cell ^3H-PGE2 binding assay using unlabeled PGE2 as a competitor.
# Membrane Preparation: All operations are performed at 4° C. Transfected cells expressing either prostaglandin E2 type 1, type 2, type 3, or type 4 (EP1, EP2, EP3, or EP4, respectively) receptors are harvested and suspended to 2 million cells per ml in Buffer A [50 mM Tris-HCl (pH 7.4), 10 mM MgCI2, 1 mM EDTA, 1 mM Pefabloc peptide, (Boehringer Mannheim Corp., Indianapolis, Ind.), 10 uM Phosporamidon peptide, (Sigma, St. Louis, Mo.), 1 uM pepstatin A peptide, (Sigma, St. Louis, Mo.), 10 uM elastatinal peptide, (Sigma, St. Louis, Mo.), 100 uM antipain peptide, (Sigma, St. Louis, Mo.)]. The cells are lysed by sonification with a Branson Sonifier (Branson Ultrasonics Corporation, Danbury, Conn.) in 2 fifteen-second bursts. Unlysed cells and debris are removed by centrifugation at 100 ×g for 10 min. Membranes are then harvested by centrifugation at 45,000×g for 30 minutes. […]
row,SMILES,IC50 [µM]
1,"O=C(O)CCCCCCN1C(=O)CC[C@@H]1CC[C@@H](O)Cc1cccc(Cl)c1 [Example 1, 7-{2S-[4-(3-Chloro-phenyl)-3R-hydroxy-butyl]-5-oxo-pyrrolidin-1-yl}-heptanoic acid]",> 3.2
2,"O=C(O)CCCCCCN1C(=O)CC[C@@H]1CC[C@@H](O)Cc1cccc(C(F)(F)F)c1 [Example 2, 7-{2S-[3R-hydroxy-4-(3-trifluoromethyl-phenyl)-butyl]-5-oxo-pyrrolidin-1-yl}-heptanoic acid]",> 3.2
3,"O=C1CC[C@H](CCC(O)Cc2cccc(Cl)c2)N1CCCCCCc1nn[nH]n1 (stereo partly drawn) [Example 3, 5S-[4-(3-Chloro-phenyl)-3-hydroxy-butyl]-1-[6-(2H-tetrazol-5-yl)-hexyl]-pyrrolidin-2-one]",> 3.2
4,"O=C1CC[C@H](CC[C@@H](O)Cc2cccc(C(F)(F)F)c2)N1CCCCCCc1nn[nH]n1 [Example 4, 5S-[3R-Hydroxy-4-(3-trifluoromethyl-phenyl)-butyl]-1-[6-(2H-tetrazol-5-yl)-hexyl]-pyrrolidin-2-one]",> 3.2
5,"O=C1CCC(CCC(O)Cc2cccc(-c3ccccc3)c2)N1CCCCCCc1nn[nH]n1 (stereo not drawn) [Example 6, 5-(4-Biphenyl-3-yl-3-hydroxy-butyl)-1-[6-(2H-tetrazol-5-yl)-hexyl]-pyrrolidin-2-one]",> 3.2
6,"O=C(O)CCCCCCN1C(=O)CCC1CCC(O)Cc1ccccc1 (stereo not drawn) [Example 9, 7-(2-(3-hydroxy-4-phenyl-butyl)-5-oxo-pyrrolidin-1-yl)-heptanoic acid]",> 3.2

# From US20030176479A1, “Use of selective EP4 receptor agonists for the treatment of liver failure, loss of patency of the ductus arteriosus, glaucoma or ocular hypertension” (priority 2002, published 2003)
